Measurements as given in ChEMBL document CHEMBL6074689 (Eur J Med Chem, 2025).
Calls of active or inactive are those of the source. No cut-off for these calls is given here.

What was measured:
[1] = biological target: T1, Acetylcholinesterase (Homo sapiens, UniProt P22303); assay: Inhibition of human recombinant AChE expressed in HEK293 cells using acetylthiocholine iodide as substrate preincubated with compound for 30 mins followed by substrate addition and measured after 30 mins by DTNB reagent based Ellman's method
[2] = biological target: Cholinesterase (Equus caballus, UniProt P81908); assay: Inhibition of equine serum BChE using acetylthiocholine iodide as substrate preincubated with compound for 30 mins followed by substrate addition and measured after 30 mins by DTNB reagent based Ellman's method
[3] = biological target: T1, Acetylcholinesterase; assay: Reversible binding affinity to human AChE using acetylthiocholine iodide as substrate assessed as binding constant preincubated for 40 mins by DTNB reagent based Ellman's method
[4] = biological target: T1, Acetylcholinesterase; assay: Displacement of propidium iodide from human AChE PAS assessed as reduction in fluorescence intensity at 5 uM incubated for 6 hrs by fluorescence based analysis relative to control; design: scale not given: the % may be the effect or the level left
[5] = biological target: T1, Acetylcholinesterase; assay: Displacement of propidium iodide from human AChE PAS assessed as reduction in fluorescence intensity at 1 uM incubated for 6 hrs by fluorescence based analysis relative to control; design: scale not given: the % may be the effect or the level left
[6] = biological target: T1, Acetylcholinesterase; assay: Displacement of propidium iodide from human AChE PAS assessed as reduction in fluorescence intensity at 0.01 uM incubated for 6 hrs by fluorescence based analysis relative to control; design: scale not given: the % may be the effect or the level left
[7] = test system: PC-12; assay: Neuroprotective activity against H2O2-induced oxidative stress in rat PC-12 cells assessed as cell viability at 1 to 20 uM preincubated with compound for 24 hrs and followed by H2O2 induction and measured after 24 hrs by MTT assay; type: functional, cell-based; conditions: dose 1-20 µM, time 48.0 hrs
[8] = test system: PC-12; assay: Induction of apoptosis in rat PC-12 cells assessed as viable cells at 2.5 uM incubated for 24 hrs by Annexin V/PI staining based flow cytometry analysis (reference value: 82.8%); type: functional; conditions: read-out: Activity
[9] = test system: PC-12; assay: Induction of apoptosis in rat PC-12 cells assessed as viable cells at 20 uM incubated for 24 hrs by Annexin V/PI staining based flow cytometry analysis (reference value: 82.8%); type: functional; conditions: read-out: Activity
[10] = Metal chelating activity assessed as compound-Fe2+ complex formation by measuring increase in absorption intensity at 300 uM in presence of by UV-vis spectrometry
[11] = biological target: Amyloid-beta precursor protein (Homo sapiens) (UniProt P05067); assay: Inhibition of amyloid beta (1 to 42) (unknown origin) self induced aggregation at 1.521 uM incubated for 72 hrs by transmission electron microscopic analysis
[12] = Toxicity in Drosophila melanogaster Oregon R-positive assessed as reduction in eclosed flies at 40 uM measured for 15 days relative to control; design: scale not given: the % may be the effect or the level left; conditions: 360 h, time 15 day
[13] = test system: Drosophila melanogaster; assay: Anti-alzheimer activity in ey-GAL4 driven UAS-amyloid beta (1 to 42) induced Drosophila melanogaster Oregon R-positive assessed as rescued eye phenotype at 10 to 20 uM by Stereo zoom microscopic imaging analysis relative to control; type: functional; conditions: dose 10-20 µM
[14] = test system: Drosophila melanogaster; assay: Anti-alzheimer activity in ey-GAL4 driven UAS-amyloid beta (1 to 42) induced Drosophila melanogaster Oregon R-positive assessed as rescued eye phenotype at 10 uM by Stereo zoom microscopic imaging analysis relative to control; type: functional
[15] = test system: Drosophila melanogaster; assay: Anti-alzheimer activity in ey-GAL4 driven UAS-amyloid beta (1 to 42) induced Drosophila melanogaster Oregon R-positive assessed as severe eye phenotype at 40 uM by Stereo zoom microscopic imaging analysis relative to control; type: functional
[16] = test system: Drosophila melanogaster; assay: Anti-alzheimer activity in ey-GAL4 driven UAS-amyloid beta (1 to 42) induced Drosophila melanogaster Oregon R-positive assessed as rescued eye phenotype at 50 uM by Stereo zoom microscopic imaging analysis relative to control; type: functional
[17] = test system: Drosophila melanogaster; assay: Anti-alzheimer activity in ey-GAL4 driven UAS-amyloid beta (1 to 42) induced Drosophila melanogaster Oregon R-positive assessed as increase in superoxide level at 10 to 20 uM by fluorescence based analysis; type: functional, organism-based; conditions: dose 10-20 µM
[18] = Acute toxicity in Swiss albino mouse assessed as animal survival at 175 mg/kg, po administered for 14 days; type: organism-based; conditions: in vivo, 336 h, time 14 day
[19] = test system: Mus musculus; assay: Antialzheimer activity in scopolamine-induced Swiss albino mouse model assessed as reduction in BChE level at 0.3 to 0.5 mg/kg, po preincubated with compound for 30 mins followed by scopolamine induction and measured after 30 mins; type: functional, organism-based; conditions: dose 0.3-0.5 mg/kg, time 1.0 hrs
[20] = test system: Mus musculus; assay: Antioxidant activity against scopolamine-induced Swiss albino mouse model assessed as increase in SOD level at 0.3 to 0.5 mg/kg, po by absorbance based analysis; type: functional, organism-based; conditions: dose 0.3-0.5 mg/kg
[21] = test system: Mus musculus; assay: Antioxidant activity against scopolamine-induced Swiss albino mouse model assessed as increase in catalase level in brain at 0.3 to 0.5 mg/kg, po by absorbance based analysis; type: functional, organism-based; conditions: dose 0.3-0.5 mg/kg
[22] = test system: Mus musculus; assay: Neuroprotective activity against scopolamine-induced Swiss albino mouse model assessed as increase in NR4A2 mRNA level at 0.3 to 0.5 mg/kg, po measured after 6 days by RT-PCR analysis; type: functional, organism-based; conditions: dose 0.3-0.5 mg/kg, time 6.0 day
[23] = test system: Mus musculus; assay: Neuroprotective activity against scopolamine-induced Swiss albino mouse model assessed as upregulation of PKA mRNA level at 0.3 to 0.5 mg/kg, po measured after 6 days by RT-PCR analysis; type: functional, organism-based; conditions: dose 0.3-0.5 mg/kg, time 6.0 day

T1 sequence (P22303 whole entry): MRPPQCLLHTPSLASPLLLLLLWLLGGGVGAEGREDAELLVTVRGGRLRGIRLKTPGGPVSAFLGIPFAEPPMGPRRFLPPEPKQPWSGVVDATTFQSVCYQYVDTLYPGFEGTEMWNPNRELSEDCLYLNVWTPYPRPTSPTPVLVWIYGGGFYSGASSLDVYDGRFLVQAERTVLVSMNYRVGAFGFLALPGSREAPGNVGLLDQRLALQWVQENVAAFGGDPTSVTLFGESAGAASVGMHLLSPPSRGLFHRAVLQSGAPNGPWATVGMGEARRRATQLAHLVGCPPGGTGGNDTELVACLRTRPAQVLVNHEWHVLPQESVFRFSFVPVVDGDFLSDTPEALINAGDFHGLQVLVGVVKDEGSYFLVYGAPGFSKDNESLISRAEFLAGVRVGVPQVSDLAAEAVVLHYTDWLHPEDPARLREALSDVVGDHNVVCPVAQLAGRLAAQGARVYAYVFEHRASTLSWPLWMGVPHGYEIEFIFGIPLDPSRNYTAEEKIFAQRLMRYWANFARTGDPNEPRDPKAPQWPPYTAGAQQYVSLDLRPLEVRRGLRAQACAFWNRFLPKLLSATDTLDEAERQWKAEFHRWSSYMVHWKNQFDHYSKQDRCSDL
Chain of Cholinesterase (P81908 whole entry): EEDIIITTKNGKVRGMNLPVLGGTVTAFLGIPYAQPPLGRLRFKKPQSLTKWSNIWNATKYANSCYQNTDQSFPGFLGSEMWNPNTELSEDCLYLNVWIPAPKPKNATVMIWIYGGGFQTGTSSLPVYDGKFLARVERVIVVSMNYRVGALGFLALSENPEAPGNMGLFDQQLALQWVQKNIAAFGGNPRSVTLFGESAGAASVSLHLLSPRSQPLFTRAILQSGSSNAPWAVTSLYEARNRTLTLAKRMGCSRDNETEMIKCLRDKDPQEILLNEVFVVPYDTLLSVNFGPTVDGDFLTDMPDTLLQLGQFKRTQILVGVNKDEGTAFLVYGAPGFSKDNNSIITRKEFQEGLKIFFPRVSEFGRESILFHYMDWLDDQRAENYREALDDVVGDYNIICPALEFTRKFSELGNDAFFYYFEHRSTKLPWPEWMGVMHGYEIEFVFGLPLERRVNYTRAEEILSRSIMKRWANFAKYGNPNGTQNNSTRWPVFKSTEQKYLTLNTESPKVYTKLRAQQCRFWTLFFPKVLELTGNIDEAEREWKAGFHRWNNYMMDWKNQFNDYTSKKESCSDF
Chain of Amyloid-beta precursor protein (Homo sapiens) (P05067 whole entry): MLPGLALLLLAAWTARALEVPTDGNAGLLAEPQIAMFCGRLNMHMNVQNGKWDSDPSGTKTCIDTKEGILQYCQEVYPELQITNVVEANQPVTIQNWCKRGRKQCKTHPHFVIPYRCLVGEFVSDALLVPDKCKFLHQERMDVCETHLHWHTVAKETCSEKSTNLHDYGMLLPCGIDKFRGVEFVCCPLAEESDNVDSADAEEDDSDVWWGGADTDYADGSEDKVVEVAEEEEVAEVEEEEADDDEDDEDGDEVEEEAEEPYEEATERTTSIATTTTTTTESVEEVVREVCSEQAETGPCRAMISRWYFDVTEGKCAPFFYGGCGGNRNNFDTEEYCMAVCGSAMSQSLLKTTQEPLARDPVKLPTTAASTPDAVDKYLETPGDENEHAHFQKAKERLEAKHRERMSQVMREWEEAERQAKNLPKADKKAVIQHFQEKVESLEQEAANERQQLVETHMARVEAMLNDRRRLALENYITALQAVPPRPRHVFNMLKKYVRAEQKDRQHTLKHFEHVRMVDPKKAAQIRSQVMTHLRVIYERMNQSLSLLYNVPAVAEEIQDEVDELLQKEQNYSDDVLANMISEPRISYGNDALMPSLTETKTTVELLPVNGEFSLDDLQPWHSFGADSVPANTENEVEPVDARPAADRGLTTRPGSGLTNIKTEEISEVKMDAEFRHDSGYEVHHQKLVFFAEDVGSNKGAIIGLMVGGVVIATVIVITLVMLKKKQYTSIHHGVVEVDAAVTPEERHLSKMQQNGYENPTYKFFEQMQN

Compound: C[C@@H](c1cccc(OC(=O)NCCc2c[nH]c3ccc(Cl)cc23)c1)N(C)C
- IC50 [1]: 7.97 nM
- IC50 [2]: 0.79 nM
- K [3]: 0.041 min⁻¹
- Activity [4]: 21.9%
- Activity [5]: 20.4%
- Activity [6]: 1.37%
- Activity [7]: Active
- viability at 2.5 µM [8]: 72.2%
- viability at 20 µM [9]: 81.5%
- Activity [10]: inactive
- inhibition [11]: Active
- Activity [12]: 20%
- Activity [13]: 36%
- Activity [14]: 43%
- Activity [15]: 16%
- Activity [16]: 23%
- Activity [17]: Active
- Activity [18]: Non-toxic
- Activity [19]: Active
- Activity [20]: Active
- Activity [21]: Active
- Activity [22]: Active
- Activity [23]: Active
